Data on three molecules can be found in patent US20250302797A1, “COMBINATION THERAPIES FOR TREATING INFLAMMATION” (Flagship Pioneering Innovations VI, LLC, priority 2022, published 2025).

Assay [1] relates to cytokine gene expression in ears of mice stimulated with oxazolone. The assay can be described thus: Oxazolone-induced dermatitis mouse model: cytokine gene expression in ear. In kind it is in vivo, BALB/c mice. The note with it: right ear; topical; Dexamethasone 5 mg/mL or Luteolin (1.6-9.6 mg/mL)+Gamma-mangostin (1.2-7.2 mg/mL). As for the experimental part: (§1) Male BALB/c mice weighing 22±2 g are used and randomly divided into groups of 5 each. Sham treatment group receive no oxazolone sensitization and challenge, but PBS, plus treated with vehicle (Acetone:ethanol 1:1). All other groups' animals were sensitized by applying oxazolone (100 μL, 1.5% in acetone) onto their preshaved abdominal surface on Day 0, and challenged by oxazolone (1%, 20 μL/ear) seven (7) days later. 20 μL of either Vehicle, Dexamethasone (5 mg/mL; anti-inflammatory positive control), or a combination of Luteolin (1.6-9.6 mg/mL)+Gamma-mangostin (1.2-7.2 mg/mL) were applied topically to the anterior and posterior surfaces of the right ear 30 minutes before and 15 minutes after oxazolone challenge. Left ear was unstimulated and treated as a control.
(§2) The right and left ear thickness of each mouse were measured at 24 hours after oxazolone challenge as an index of inflammation. The right ear was harvested and snap frozen for cytokine gene expression analysis.

The test system of assay [2] is LPS-injected mice. The assay can be described thus: LPS-induced systemic inflammation mouse model: blood cytokine levels. In kind it is in vivo, C57Bl/6 mice. The note with it: intraperitoneal 1 hour prior to LPS (1 mg/kg); Dexamethasone 5 mg/kg or Luteolin+Gamma-mangostin 4+4.5 mg/kg; serum or plasma. The procedure: C57Bl/6 male mice, 6-8 weeks old, weighing 22±2 g were randomly divided into groups of 5-6 each. Sham animals were injected intra-peritoneally with PBS only. All other groups were intraperitoneally injected with either Vehicle control, Dexamethasone (5 mg/kg), or a combination of Luteolin+Gamma-mangostin (4+4.5 mg/kg) at 1 hour prior to injection with LPS (1 mg/kg), an agent known to trigger systemic inflammation. After LPS injection, blood was collected at different time points: 30 min, 2 h, 4 h and 24 h and the processed serum or plasma were used for further cytokine analysis through LUMINEX or Ella Automated Immunoassay System (Protein Simple).

The subject of assay [3] is oxazolone-induced ear swelling in mice. Briefly: Oxazolone-induced dermatitis mouse model: ear thickness. In kind it is in vivo, BALB/c mice. To be noted: topical 20 μL, 5 mg/mL, 30 minutes before and 15 minutes after oxazolone challenge; measured at 24 hours. The procedure:
as §1, §2

For assay [4], the system named is Differentiated THP-1 macrophages stimulated with IFN-gamma and LPS. The assay can be described thus: THP1 cytokine secretion assay. The note with it: for greatest IL6 inhibition to: IL6 secretion; for greatest TNFa inhibition to: TNFa secretion. In kind it is cell-based, Human. The procedure: Human THP-1 cells were plated and differentiated into macrophages through treatment with phorbol 12-myristate 13-acetate and beta-mercaptoethanol for 72 hours. Differentiated THP-1 macrophages were then stimulated with IFN-gamma (20 ng/mL) and LPS (50 ng/mL) to induce an inflammatory response and co-treated with gamma-mangostin and/or luteolin at 0, 0.2, 0.5, 2, 5, 10 uM. Various secreted cytokines were measured from the media using the Ella Automated Immunoassay System (ProteinSimple).

[5] abbreviates: Gamma-mangostin alone at 10 uM (0-10 uM tested).
Setting [6] is: Luteolin alone at 0.5 uM (0-10 uM tested).

Regarding `C[C@@H]1C[C@H]2[C@@H]3CCC4=CC(=O)C=C[C@]4(C)[C@@]3(F)[C@@H](O)C[C@]2(C)[C@@]1(O)C(=O)CO` [Dexamethasone], in assay [1], the “Ifng gene expression (% of Vehicle control)” value turned out to be 445%, the “Il1b gene expression (% of Vehicle control)” value stood at 5%, the “Il4 gene expression (% of Vehicle control)” value was found to be 24% and the “Il6 gene expression (% of Vehicle control)” value stood at 33%. Besides, in assay [1], the “Il11 gene expression (% of Vehicle control)” value was 55%, the “Il13 gene expression (% of Vehicle control)” value is given as 20% and the “Tnfa gene expression (% of Vehicle control)” value was 14%. Further, in assay [2], the “CXCL1 level, % of the Vehicle” value is recorded as 57%; the “MIP1-beta level, % of the Vehicle” value came out at 29%; the “TNFa level, % of the Vehicle” value is 12%. In assay [3], the “reduction in ear thickness compared to the Vehicle-treated ears” value turned out to be 29%.
`CC(C)=CCc1c(O)cc2oc3cc(O)c(O)c(CC=C(C)C)c3c(=O)c2c1O` [Gamma-mangostin, Gamma-Mangostin]: in assay [4] (setting [5]), the “greatest IL6 inhibition to” value stood at 53% and the “greatest TNFa inhibition to” value is given as 45%.
With `O=c1cc(-c2ccc(O)c(O)c2)oc2cc(O)cc(O)c12` [Luteolin], in assay [4] (setting [6]), the “greatest IL6 inhibition to” value is listed as 53.7% and the “greatest TNFa inhibition to” value came out at 45.6%.
